Reference: DBAASP
Values after ≈ are worked out from the molar mass of the structure shown. Values belong to the compound of their own block, whether it stands above or below them.

Tests used:
Assay in all cases: ≥ marks a high value that may be exact or a test limit, other limits are often not marked, values filed in µg/mL are converted to µM
[1] = test system: Bacillus subtilis ATCC 6633
[2] = test system: Staphylococcus aureus FDA 209P
[3] = test system: Salmonella enterica subsp. enterica serovar Typhimurium ATCC 14028
[4] = test system: Escherichia coli ATCC 11219
[5] = test system: Klebsiella pneumoniae ATCC 10031
[6] = test system: Staphylococcus aureus ATCC 6538
[7] = test system: Pseudomonas aeruginosa ATCC 13388
Bacillus megaterium Bm11 = test system: Bacillus megaterium Bm11
Escherichia coli ML-35 = test system: Escherichia coli ML-35
[8] = test system: Staphylococcus aureus ATCC 25923
[9] = test system: Xanthomonas campestris pv. Vesicatoria 2133-2
[10] = test system: Pseudomonas syringae pv. syringae EPS 94
[11] = test system: Erwinia amylovora PMV 6076
[12] = test system: Escherichia coli KCTC 1682
[13] = test system: Bacillus subtilis KCTC 1918
[14] = test system: Staphylococcus aureus KCTC 1621
[15] = test system: Bacillus megaterium KCTC 1096
Proteus vulgaris = test system: Proteus vulgaris
[16] = test system: Pseudomonas aeruginosa KCTC 1637
[17] = test system: Pseudomonas aeruginosa ATCC 27853
[18] = test system: Pseudomonas aeruginosa K799
Escherichia coli KF130 = test system: Escherichia coli KF130
[19] = test system: Pseudomonas aeruginosa H744
[20] = test system: Staphylococcus epidermidis
Escherichia coli UB1005 = test system: Escherichia coli UB1005
Escherichia coli KF111 = test system: Escherichia coli KF111
[21] = test system: Pseudomonas aeruginosa H374
[22] = test system: Salmonella enterica subsp. enterica serovar Typhimurium ATCC 14028s

Compound: CC(C)C[C@H](NC(=O)[C@H](CCC(N)=O)NC(=O)[C@H](CCC(N)=O)NC(=O)[C@H](C)NC(=O)CNC(=O)[C@H](C)NC(=O)[C@H](CCCCN)NC(=O)CNC(=O)[C@@H](NC(=O)[C@H](CO)NC(=O)[C@H](CCCCN)NC(=O)[C@H](CC(C)C)NC(=O)[C@H](CC(C)C)NC(=O)[C@H](Cc1ccc(O)cc1)NC(=O)[C@H](CCCCN)NC(=O)[C@H](C)NC(=O)CNC(=O)[C@H](C)NC(=O)[C@H](CCCCN)NC(=O)[C@H](Cc1ccccc1)NC(=O)[C@H](CC(C)C)NC(=O)[C@H](CO)NC(=O)[C@H](CO)NC(=O)[C@H](Cc1ccccc1)NC(=O)CN)C(C)C)C(=O)N[C@@H](C)C(=O)N[C@H]1CSSC[C@@H](C(=O)N[C@@H](C)C(=O)O)NC(=O)[C@H](CC(N)=O)NC(=O)[C@H](CC(N)=O)NC(=O)[C@H](C)NC(=O)[C@H](C)NC(=O)[C@H](CCCCN)NC1=O [GFSSLFKAGAKYLLKSVGKAGAQQLACKAANNCA]
MIC [1]: 18.7 µM (≈ 64 µg/mL)
MIC [2]: 4.36 µM (≈ 14.9 µg/mL)

Compound: CC[C@H](C)[C@H](NC(=O)CN)C(=O)N[C@@H](Cc1cnc[nH]1)C(=O)N[C@@H](CCCCN)C(=O)N[C@H](C(=O)N[C@@H](CC(C)C)C(=O)N[C@@H](CCCCN)C(=O)N[C@@H](Cc1ccc(O)cc1)C(=O)NCC(=O)N[C@@H](CCCCN)C(=O)N1CCC[C@H]1C(=O)N[C@@H](CO)C(N)=O)[C@@H](C)CC [GIHKILKYGKPS]
MIC [3]: 10 µM (≈ 13.4 µg/mL)
MIC [4]: 5 µM (≈ 6.7 µg/mL)
MIC [5]: 5 µM (≈ 6.7 µg/mL)
MIC [6]: 10 µM (≈ 13.4 µg/mL)
MIC [7]: 20 µM (≈ 26.8 µg/mL)

Compound: CC[C@H](C)[C@H](NC(=O)CN)C(=O)N[C@@H](CCCCN)C(=O)N[C@@H](CCCCN)C(=O)N[C@H](C(=O)N[C@@H](CC(C)C)C(=O)N[C@@H](CCCCN)C(=O)N[C@@H](Cc1ccc(O)cc1)C(=O)NCC(=O)N[C@@H](CCCCN)C(=O)N[C@@H](CCCCN)C(=O)N[C@@H](CO)C(N)=O)[C@@H](C)CC [GIKKILKYGKKS]
MIC [3]: 20 µM (≈ 27.2 µg/mL)
MIC [4]: 20 µM (≈ 27.2 µg/mL)
MIC [5]: ≥ 50 µM
MIC [6]: 5 µM (≈ 6.81 µg/mL)
MIC [7]: ≥ 50 µM

Compound: CC[C@H](C)[C@H](NC(=O)CNC(=O)[C@@H](N)Cc1c[nH]c2ccccc12)C(=O)N[C@@H](CCCN=C(N)N)C(=O)N[C@@H](CC(=O)O)C(=O)N[C@H](C(=O)N[C@@H](CC(C)C)C(=O)N[C@@H](CCCCN)C(=O)N[C@@H](Cc1ccc(O)cc1)C(=O)NCC(=O)N[C@@H](CCCCN)C(=O)N1CCC[C@H]1C(=O)N[C@@H](CO)C(=O)O)[C@@H](C)CC [WGIRDILKYGKPS]
MIC [3]: 8 µM (≈ 12.3 µg/mL)
MIC [4]: 15 µM (≈ 23 µg/mL)
MIC [5]: 30 µM (≈ 46 µg/mL)
MIC [6]: 15 µM (≈ 23 µg/mL)
MIC [7]: 5 µM (≈ 7.66 µg/mL)

The next lines start with the values.

MIC [3]: 1 µM (≈ 2.18 µg/mL)
MIC (Bacillus megaterium Bm11): 4 µM (≈ 8.7 µg/mL)
MIC (Escherichia coli ML-35): 2 µM (≈ 4.35 µg/mL)
MIC [8]: 4 µM (≈ 8.7 µg/mL)
Compound: CC[C@H](C)[C@H](NC(=O)[C@H](CCCCN)NC(=O)[C@H](CCCCN)NC(=O)[C@H](CCCN=C(N)N)NC(=O)[C@H](CC(C)C)NC(=O)[C@H](CCCN=C(N)N)NC(=O)[C@H](CCCN=C(N)N)NC(=O)[C@H](CC(C)C)NC(=O)[C@H](CC(C)C)NC(=O)CN)C(=O)NCC(=O)N[C@@H](CCC(=O)O)C(=O)N[C@H](C(=O)N[C@@H](Cc1ccccc1)C(=O)N[C@@H](CCCCN)C(=O)N[C@@H](CCCCN)C(=O)N[C@@H](Cc1ccc(O)cc1)C(=O)NCC(=O)O)[C@@H](C)CC [GLLRRLRKKIGEIFKKYG]

MIC [9]: ≥ 100 µM
MIC [10]: ≥ 100 µM
MIC [11]: ≥ 100 µM
Compound: CC(C)C[C@H](NC(=O)[C@H](Cc1cnc[nH]1)NC(=O)[C@H](CCC(=O)O)NC(=O)[C@H](Cc1c[nH]c2ccccc12)NC(=O)[C@H](CC(=O)O)NC(=O)[C@H](CCCCN)NC(=O)[C@H](CC(C)C)NC(=O)[C@H](Cc1cnc[nH]1)NC(=O)[C@H](CCC(=O)O)NC(=O)[C@H](Cc1c[nH]c2ccccc12)NC(=O)[C@H](CC(=O)O)NC(=O)[C@H](CCCCN)NC(=O)[C@H](CC(C)C)NC(=O)[C@H](Cc1cnc[nH]1)NC(=O)[C@H](CCC(=O)O)NC(=O)[C@H](Cc1c[nH]c2ccccc12)NC(=O)[C@H](CC(=O)O)NC(=O)[C@@H](N)CCCCN)C(=O)O [KDWEHLKDWEHLKDWEHL]

MIC [9]: 14.1 µM (≈ 20.1 µg/mL)
MIC [10]: 8.66 µM (≈ 12.3 µg/mL)
MIC [11]: 8.66 µM (≈ 12.3 µg/mL)
Compound: CC[C@H](C)[C@H](NC(=O)[C@H](CCCCN)NC(=O)[C@H](CCCCN)NC(=O)[C@H](Cc1ccccc1)NC(=O)[C@H](CC(C)C)NC(=O)[C@H](CCCCN)NC(=O)[C@@H](N)CCCCN)C(=O)N[C@@H](CC(C)C)C(=O)N[C@@H](CCCCN)C(=O)N[C@@H](Cc1ccc(O)cc1)C(=O)N[C@@H](CC(C)C)C(=O)O [KKLFKKILKYL]

MIC [12]: 25 µM (≈ 57.2 µg/mL)
MIC [13]: 1.56 µM (≈ 3.57 µg/mL)
MIC [14]: 6.25 µM (≈ 14.3 µg/mL)
MIC [15]: 3.12 µM (≈ 7.16 µg/mL)
MIC (Proteus vulgaris): 6.25 µM (≈ 14.3 µg/mL)
MIC [16]: 6.25 µM (≈ 14.3 µg/mL)
Compound: CC[C@H](C)[C@H](NC(=O)[C@H](CCCCN)NC(=O)[C@H](CCCCN)NC(=O)[C@H](Cc1ccccc1)NC(=O)[C@H](CC(C)C)NC(=O)[C@H](CCCCN)NC(=O)[C@H](Cc1c[nH]c2ccccc12)NC(=O)[C@@H](N)CCCCN)C(=O)N[C@@H](CO)C(=O)N[C@@H](CCCCN)C(=O)N[C@@H](Cc1ccccc1)C(=O)N[C@@H](CC(C)C)C(=O)N[C@@H](Cc1cnc[nH]1)C(=O)N[C@@H](CC(C)C)C(=O)N[C@@H](C)C(=O)N[C@@H](CCCCN)C(=O)N[C@@H](CCCCN)C(=O)N[C@@H](Cc1ccccc1)C(N)=O [KWKLFKKISKFLHLAKKF]

MIC [17]: 4 µM (≈ 11.5 µg/mL)
MIC [18]: 2.78 µM (≈ 8 µg/mL)
MIC (Escherichia coli KF130): 0.348 µM (≈ 1 µg/mL)
MIC [19]: 1.39 µM (≈ 4 µg/mL)
MIC [20]: 1.39 µM (≈ 4 µg/mL)
MIC (Escherichia coli UB1005): 0.348 µM (≈ 1 µg/mL)
MIC (Escherichia coli KF111): 0.348 µM (≈ 1 µg/mL)
MIC [21]: 1.39 µM (≈ 4 µg/mL)
MIC [22]: 1.39 µM (≈ 4 µg/mL)
Compound: CC[C@H](C)[C@H](NC(=O)[C@@H]1CCCN1C(=O)[C@H](CCCCN)NC(=O)[C@H](CC(C)C)NC(=O)[C@H](C)NC(=O)[C@@H](NC(=O)[C@@H](NC(=O)[C@H](CC(C)C)NC(=O)[C@@H](NC(=O)[C@H](CCCCN)NC(=O)[C@H](CCCCN)NC(=O)[C@H](C)NC(=O)[C@H](C)NC(=O)[C@H](CO)NC(=O)[C@@H](NC(=O)[C@H](CC(C)C)NC(=O)[C@H](CCCCN)NC(=O)[C@H](CCCCN)NC(=O)[C@H](CC(C)C)NC(=O)[C@H](Cc1ccccc1)NC(=O)[C@H](CO)NC(=O)[C@H](CCCCN)NC(=O)[C@H](Cc1c[nH]c2ccccc12)NC(=O)[C@@H](N)CCCCN)[C@@H](C)O)C(C)C)[C@@H](C)O)[C@@H](C)O)C(=O)N[C@@H](CO)C(=O)N[C@@H](CO)C(=O)O [KWKSFLKKLTSAAKKVLTTALKPISS]

MIC [17]: 8 µM (≈ 24.3 µg/mL)
MIC [18]: 10.6 µM (≈ 32 µg/mL)
MIC (Escherichia coli KF130): 1.32 µM (≈ 4 µg/mL)
MIC [19]: 10.6 µM (≈ 32 µg/mL)
MIC [20]: 10.6 µM (≈ 32 µg/mL)
MIC (Escherichia coli UB1005): 0.659 µM (≈ 2 µg/mL)
MIC (Escherichia coli KF111): 1.32 µM (≈ 4 µg/mL)
MIC [21]: 10.6 µM (≈ 32 µg/mL)
MIC [22]: 5.28 µM (≈ 16 µg/mL)
Compound: CC[C@H](C)[C@H](NC(=O)[C@@H]1CCCN1C(=O)[C@H](CCCCN)NC(=O)[C@H](CC(C)C)NC(=O)[C@H](C)NC(=O)[C@@H](NC(=O)[C@H](Cc1ccc(O)cc1)NC(=O)[C@H](Cc1ccccc1)NC(=O)[C@@H](NC(=O)[C@@H](NC(=O)[C@H](CCCCN)NC(=O)[C@@H](NC(=O)[C@@H]1CCCN1C(=O)[C@H](CO)NC(=O)[C@H](CCCCN)NC(=O)[C@H](Cc1ccccc1)NC(=O)[C@@H](NC(=O)[C@H](CCCCN)NC(=O)[C@H](CC(C)C)NC(=O)[C@H](Cc1ccccc1)NC(=O)[C@H](CO)NC(=O)[C@H](CCCCN)NC(=O)[C@H](Cc1c[nH]c2ccccc12)NC(=O)[C@@H](N)CCCCN)[C@@H](C)O)C(C)C)[C@@H](C)O)C(C)C)[C@@H](C)O)C(=O)N[C@@H](CO)C(=O)N[C@@H](CO)C(=O)O [KWKSFLKTFKSPVKTVFYTALKPISS]
